A short description of experiment [1]: Retrospective chart review of cardiac events in prostate cancer patients on LHRH inhibitors vs controls. The experiment is classed as in vivo. The conditions noted are these: treated patients vs controls. The method, then:
The patients on either Leuprolide or Goserelin were treated with the recommended doses indicated for the treatment of prostatic carcinoma, at either one or three month intervals depending on the preparation used. Leuprolide was dosed at 7.5 mg monthly (single intramuscular injection) or at 22.5 mg at 3 month intervals (single intramuscular injection). Goserelin was dosed at 3.6 mg monthly or at a dose of 10.8 mg at 3 month intervals (subcutaneous injection). The various groups of office patients were evaluated by chart review. In groups 2 and 3 only those on drug for at least one year were considered. Cardiac event is defined either the history of a heart attack or occurrence of coronary artery bypass or angioplasty. In control groups only events occurring in the 3 years prior to the questionnaire are charted.

Experiment [2] in a line: Second study: patient questionnaire, cardiac events in patients taking finasteride. The experiment is classed as in vivo. The conditions noted are these: 4 events over 242 patient-years; control 3.5%/yr. The method, then: Finasteride was being administered at a dosage of a single oral 5 mg tablet a day. This is the same tablet used in treatment of BPH as disclosed in U.S. Pat. No. 5,175,155 and such dosage applies in the present invention. However, use of a 2 mg or 10 mg oral tablet is contemplated. In the second study patients of the practice were given a questionnaire. Various patients had been treated with finasteride for varying lengths of time. Only those on the drug for at least one year were considered. The average time on finasteride was 3 years. The number of cardiac events occurring in the patients taking finasteride was only 4 events over 242 patient-years. (1.6%/yr.) In the control group 26 events occurred in the 3 years prior over 732 patient-years. (3.5%/yr.) The 45% decrease observed in cardiac events is believed to be significant. (90% Cl equal to 1.4% to 3.7%)

Each structure is given as a SMILES string.

Data on three compounds can be found in patent US6627227B2, “Use of saw palmetto to prevent atherosclerosis” (priority 2000, dated 2003).

On to `CC(=O)O.CCNC(=O)[C@@H]1CCCN1C(=O)[C@H](CCCNC(=N)N)NC(=O)[C@H](CC(C)C)NC(=O)[C@@H](CC(C)C)NC(=O)[C@H](Cc1ccc(O)cc1)NC(=O)[C@H](CO)NC(=O)[C@H](Cc1c[nH]c2ccccc12)NC(=O)[C@H](Cc1c[nH]cn1)NC(=O)[C@@H]1CCC(=O)N1` [Lupron, 5-oxo-L-prolyl-L-histidyl-L-tryptophyl-L-seryl-L-tyrosyl-D-leucyl-L-leucyl-L-arginyl-N-ethyl-L-prolinamide acetate salt], for which the “heart attacks compared with controls” value in experiment [1] is on record as “fewer heart attacks than controls”.
Same read-out and setting: with `CC(C)C[C@H](NC(=O)[C@@H](COC(C)(C)C)NC(=O)[C@H](Cc1ccc(O)cc1)NC(=O)[C@H](CO)NC(=O)[C@H](Cc1c[nH]c2ccccc12)NC(=O)[C@H](Cc1cnc[nH]1)NC(=O)[C@@H]1CCC(=O)N1)C(=O)N[C@@H](CCCNC(=N)N)C(=O)N1CCC[C@H]1C(=O)NNC(N)=O` [Zoladex, pyro-Glu-His-Trp-Ser-Tyr-D-Ser(Bu^t)-Leu-Arg-Pro-Azgly-NH2 acetate] the entry was “fewer heart attacks than controls”.
In the case of `CC(C)(C)NC(=O)[C@H]1CC[C@H]2[C@@H]3CC[C@H]4NC(=O)C=C[C@]4(C)[C@H]3CC[C@]12C` [finasteride, 4-azaandrost-1-ene-17-carboxamide, N-(1,1-dimethylethyl)-3-oxo-(5a 17B)-], the cardiac event rate in experiment [2] is on record as 1.6 %/yr.
